{"source": "patent US20140213575A1", "about": "“6H-Thieno[3,2-f][1,2,4]triazolo[4,3-a][1,4]diazepines” (BAYER INTELLECTUAL PROPERTY GMBH, priority 2011, published 2014)", "key": {"MOLM-13 cells [1]": {"test_system": "MOLM-13 cells", "experiment": "Cellular proliferation assay (alamarBlue) MOLM-13", "type": "cell-based", "settings": "Homo sapiens, 96 hours, read-out: Leukaemia MOLM-13 IC50", "protocol": "(§1) In accordance with the invention, the ability of the substances to inhibit the proliferation of various cell lines was determined. Cell viability was determined by means of the alamarBlue® reagent (Invitrogen). […] After incubation overnight at 37° C., the fluorescence values were determined (CI values). […] Then the fluorescence values were determined (CO values).\n(§2) The substances were investigated in the cell lines in Table 1, which for example represent the stated indications: […]"}, "LAPC-4 cells": {"test_system": "LAPC-4 cells", "experiment": "Cellular proliferation assay (alamarBlue) LAPC-4", "type": "cell-based", "settings": "Homo sapiens, LAPC4, 168 hours, read-out: Prostate LAPC-4 IC50", "protocol": "as §1, §2"}, "VCaP cells": {"test_system": "VCaP cells", "experiment": "Cellular proliferation assay (alamarBlue) VCaP", "type": "cell-based", "settings": "Homo sapiens, 168 hours, read-out: Prostate VCaP IC50", "protocol": "as §1, §2"}, "MDA-MB-231 cells": {"test_system": "MDA-MB-231 cells", "experiment": "Cellular proliferation assay (alamarBlue) MDA-MB-231", "type": "cell-based", "settings": "Homo sapiens, 96 hours, read-out: Breast MDA-MB-231 IC50", "protocol": "as §1, §2"}, "HeLa-MaTu cells": {"test_system": "HeLa-MaTu cells", "experiment": "Cellular proliferation assay (alamarBlue) HeLa-MaTu", "type": "cell-based", "settings": "96 hours, read-out: Cervix HeLa-MaTu IC50", "protocol": "as §1, §2"}, "B16F10 cells": {"test_system": "B16F10 cells", "experiment": "Cellular proliferation assay (alamarBlue) B16F10", "type": "cell-based", "settings": "Mus musculus, B16-F10, 96 hours, read-out: Melanoma B16F10 IC50", "protocol": "as §1, §2"}, "MOLP-8 cells": {"test_system": "MOLP-8 cells", "experiment": "Cellular proliferation assay (alamarBlue) MOLP-8", "type": "cell-based", "settings": "Homo sapiens, 120 hours, read-out: Multiple myeloma MOLP-8 IC50", "protocol": "as §1, §2"}, "[2]": {"experiment": "Plasma concentrations from in-vivo tests and PK parameters", "parameters": "AUC(0-tlast): unit not given here", "settings": "mouse; for unbound exposure in comparison with comparative example V1: after single oral administration, by AUC(0-tlast),norm,u; for AUC(0-tlast),norm,u: AUCnorm multiplied by fu; for AUC(0-tlast),norm: dose-normalized; for tlast: last time point with measurable plasma concentration; for Plasma concentration: 50 mg/kg p.o.", "protocol": "After thawing and shaking, the samples are centrifuged for 20 minutes at 4° C. and approx. 2000×g. An aliquot of the supernatant (approx. 25 μL) is measured by LCMS analysis. If high plasma or tissue levels are expected (>ULOQ, as a rule 5 μM) the precipitated samples are additionally diluted 1:100 with ACN/H2O (80/20, v/v)+internal standard and corresponding aliquots are measured by LCMS. For this, the test substance is added in 5-9 concentrations, corresponding to the determination range of the analytical method, to a control matrix (calibration samples), e.g. 0, 1, 10, 100, 1000, 5000 nM. For this, a portion of solid is weighed and is dissolved in DMSO (as a rule 1 mM stock solution). This stock solution is further diluted 1:10 with DMSO ([…]). Then 1:5 (v/v) ACN+internal standard (soln. A) is added to the calibration samples and processed further as with the plasma samples. The calibration series in solvent takes place similarly to the plasma calibration described. The test substance is in this case prepared in ACN/H2O (50/50, v/v) and then 1:5 (v/v) ACN+internal standard is added to the samples. This series serves for calibration of the diluted samples. The following PK parameters are calculated from these concentration-time profiles obtained: […]\nAUC(0-tlast),norm multiplied by the free fraction (fu) of the species investigated."}, "MOLM-13 cells [3]": {"test_system": "MOLM-13 cells", "experiment": "MOLM-13 acute monocytic leukaemia tumour model", "settings": "for T/C value: day 3 to day 14, measured on day 14; for activity on tumour growth: significance P<0.05", "protocol": "NMRI nude mice were inoculated subcutaneously in the right flank on day 0 with 2×10^6 MOLM-13 cells in 0.1 ml Matrigel. […] Practical example 1 and practical example 2 were dissolved in 40% PEG400, 5% ethanol, 25% Solutol. The substances were administered orally, daily for […] (day 3 to day 14). […] Practical examples 1 and 2 were applied at a daily dose of 200 (highest dose used), 120 or 70 mg/kg."}, "[4]": {"experiment": "B16F10 melanoma tumour model", "settings": "C57BL/6, mouse, in vivo, po", "protocol": "(§3) C57BL/6 mice were inoculated on day 0 with 0.5×10^6 cells in 0.1 ml medium, subcutaneously, in the right flank. […] The substances were administered orally for 10 days (day 2 to day 11). […] Practical example 2 was applied at a dose of 160 or 120 mg/kg."}, "B16F10 melanoma": {"test_system": "B16F10 melanoma", "experiment": "B16F10 melanoma tumour model", "protocol": "as §3"}}, "data": [{"smiles": "Cc1sc2c(c1C)C(c1ccc(Cl)cc1)=N[C@@H](CC(=O)N1C3CCC1CC(=O)C3)c1nnc(C)n1-2", "note": "[Example 1, 8-{2-[(S)-4-(4-Chlorophenyl)-2,3,9-trimethyl-6H-thieno[3,2-f][1,2,4]triazolo[4,3-a][1,4]diazepin-6-yl]acetyl}-8-azabicyclo[3.2.1]octan-3-one]", "values": [{"measurement": "IC50", "setting": "MOLM-13 cells [1]", "value": 91, "unit": "nM"}, {"measurement": "IC50", "setting": "LAPC-4 cells", "value": 54, "unit": "nM"}, {"measurement": "IC50", "setting": "VCaP cells", "value": 39, "unit": "nM"}, {"measurement": "IC50", "setting": "MDA-MB-231 cells", "value": 110, "unit": "nM"}, {"measurement": "IC50", "setting": "HeLa-MaTu cells", "value": 251, "unit": "nM"}, {"measurement": "IC50", "setting": "B16F10 cells", "value": 97, "unit": "nM"}, {"measurement": "IC50", "setting": "MOLP-8 cells", "value": 70, "unit": "nM"}, {"measurement": "concentration at 1 h", "setting": "[2]; in vivo, po, 100 mg/kg p.o., 1 h", "value": 1470, "unit": "ng/mL"}, {"measurement": "unbound exposure in comparison with comparative example V1", "setting": "[2]", "value": "higher unbound exposure"}, {"measurement": "AUC(0-tlast)", "setting": "[2]; single oral dose 100 mg/kg", "value": 4.9}, {"measurement": "AUC(0-tlast),norm,u", "setting": "[2]; single oral dose 100 mg/kg", "value": 0.006, "unit": "kg·h/L"}, {"measurement": "AUC(0-tlast),norm", "setting": "[2]; single oral dose 100 mg/kg", "value": 0.05, "unit": "kg·h/L"}, {"measurement": "tlast", "setting": "[2]; single oral dose 100 mg/kg", "value": 24, "unit": "h"}, {"measurement": "concentration at 3 h", "setting": "[2]; plasma, po, 100 mg/kg p.o., 3 h", "value": 836, "unit": "ng/mL"}, {"measurement": "concentration at 6 h", "setting": "[2]; plasma, po, 100 mg/kg p.o., 6 h", "value": 176, "unit": "ng/mL"}, {"measurement": "concentration at 24 h", "setting": "[2]; plasma, po, 100 mg/kg p.o., 24 h", "value": 1.56, "unit": "ng/mL"}, {"measurement": "T/C value", "setting": "MOLM-13 cells [3]; 70 mg/kg oral daily", "value": 58, "unit": "%"}, {"measurement": "activity on tumour growth", "setting": "MOLM-13 cells [3]; 70 mg/kg oral daily", "value": "inactive"}, {"measurement": "T/C value", "setting": "MOLM-13 cells [3]; 120 mg/kg oral daily", "value": 46, "unit": "%"}, {"measurement": "activity on tumour growth", "setting": "MOLM-13 cells [3]; 120 mg/kg oral daily", "value": "showed activity"}, {"measurement": "T/C value", "setting": "MOLM-13 cells [3]; 200 mg/kg oral daily", "value": 39, "unit": "%"}, {"measurement": "activity on tumour growth", "setting": "MOLM-13 cells [3]; 200 mg/kg oral daily", "value": "inhibited tumour growth"}]}, {"smiles": "Cc1sc2c(c1C)C(c1ccc(Cl)cc1)=N[C@@H](CC(=O)N1CC3(COC3)C1)c1nnc(C)n1-2", "note": "[Example 2, 2-[(S)-4-(4-Chlorophenyl)-2,3,9-trimethyl-6H-thieno[3,2-f][1,2,4]triazolo[4,3-a][1,4]diazepin-6-yl]-1-(2-oxa-6-azaspiro[3.3]hept-6-yl)ethan-1-one]", "values": [{"measurement": "IC50", "setting": "MOLM-13 cells [1]", "value": 98, "unit": "nM"}, {"measurement": "IC50", "setting": "LAPC-4 cells", "value": 43, "unit": "nM"}, {"measurement": "IC50", "setting": "VCaP cells", "value": 58, "unit": "nM"}, {"measurement": "IC50", "setting": "MDA-MB-231 cells", "value": 117, "unit": "nM"}, {"measurement": "IC50", "setting": "HeLa-MaTu cells", "value": 202, "unit": "nM"}, {"measurement": "IC50", "setting": "B16F10 cells", "value": 82, "unit": "nM"}, {"measurement": "IC50", "setting": "MOLP-8 cells", "value": 64, "unit": "nM"}, {"measurement": "Plasma concentration", "setting": "[2]; 1 h", "value": 1366.5, "unit": "ng/mL"}, {"measurement": "Plasma concentration", "setting": "[2]; 3 h", "value": 2694.4, "unit": "ng/mL"}, {"measurement": "Plasma concentration", "setting": "[2]; 6 h", "value": 1111.0, "unit": "ng/mL"}, {"measurement": "unbound exposure in comparison with comparative example V1", "setting": "[2]", "value": "higher unbound exposure"}, {"measurement": "AUC(0-tlast)", "setting": "[2]; single oral dose 50 mg/kg", "value": 10}, {"measurement": "AUC(0-tlast),norm,u", "setting": "[2]; single oral dose 50 mg/kg", "value": 0.050, "unit": "kg·h/L"}, {"measurement": "AUC(0-tlast),norm", "setting": "[2]; single oral dose 50 mg/kg", "value": 0.20, "unit": "kg·h/L"}, {"measurement": "tlast", "setting": "[2]; single oral dose 50 mg/kg", "value": 6.0, "unit": "h"}, {"measurement": "T/C value", "setting": "MOLM-13 cells [3]; 70 mg/kg oral daily", "value": 46, "unit": "%"}, {"measurement": "activity on tumour growth", "setting": "MOLM-13 cells [3]; 70 mg/kg oral daily", "value": "not statistically significant"}, {"measurement": "T/C value", "setting": "MOLM-13 cells [3]; 120 mg/kg oral daily", "value": 46, "unit": "%"}, {"measurement": "activity on tumour growth", "setting": "MOLM-13 cells [3]; 120 mg/kg oral daily", "value": "not statistically significant"}, {"measurement": "T/C value", "setting": "MOLM-13 cells [3]; 200 mg/kg oral daily", "value": 23, "unit": "%"}, {"measurement": "activity on tumour growth", "setting": "MOLM-13 cells [3]; 200 mg/kg oral daily", "value": "active"}, {"measurement": "deaths in the treated group", "setting": "MOLM-13 cells [3]; MOLM-13 tumour model, dose group not stated", "value": "one unexplained death"}, {"measurement": "MTD at 10 days", "setting": "[4]", "value": 120, "unit": "mg/kg"}, {"measurement": "T/C value", "setting": "B16F10 melanoma; 120 mg/kg (MTD), oral, day 2 to day 11", "value": 27, "unit": "%"}, {"measurement": "weight loss", "setting": "B16F10 melanoma; 120 mg/kg dose, oral, day 2 to day 11", "value": 2, "unit": "%"}, {"measurement": "weight loss", "setting": "B16F10 melanoma; 160 mg/kg dose, oral, day 2 to day 11", "value": 5, "unit": "%"}, {"measurement": "mice killed because of weight loss above 20%", "setting": "B16F10 melanoma; group treated with 70 mg/kg, day 10", "value": "one mouse"}]}]}
